Test results as given in US12128035B2, “Activating pyruvate kinase R” (Novo Nordisk Health Care AG, priority 2021, dated 2024).
Values joined by “and” are separate entries in the source; they are usually repeats but may differ in a detail not shown here. Equal values may be shown once. Read-outs that look alike come from different tables or passages of the source. Blank lines part the entries; values can stand above or below the compound they belong to.

Experiments:
[1] = target: PKR(R510Q) (Homo sapiens, UniProt P30613, R510Q); experiment: Luminescence Assay (Kinase Glo Plus) of PKR activation; format: biochemical; conditions: read-out: AC50 (PKRR510Q)
Chain of PKR(R510Q) (P30613 whole entry R510Q): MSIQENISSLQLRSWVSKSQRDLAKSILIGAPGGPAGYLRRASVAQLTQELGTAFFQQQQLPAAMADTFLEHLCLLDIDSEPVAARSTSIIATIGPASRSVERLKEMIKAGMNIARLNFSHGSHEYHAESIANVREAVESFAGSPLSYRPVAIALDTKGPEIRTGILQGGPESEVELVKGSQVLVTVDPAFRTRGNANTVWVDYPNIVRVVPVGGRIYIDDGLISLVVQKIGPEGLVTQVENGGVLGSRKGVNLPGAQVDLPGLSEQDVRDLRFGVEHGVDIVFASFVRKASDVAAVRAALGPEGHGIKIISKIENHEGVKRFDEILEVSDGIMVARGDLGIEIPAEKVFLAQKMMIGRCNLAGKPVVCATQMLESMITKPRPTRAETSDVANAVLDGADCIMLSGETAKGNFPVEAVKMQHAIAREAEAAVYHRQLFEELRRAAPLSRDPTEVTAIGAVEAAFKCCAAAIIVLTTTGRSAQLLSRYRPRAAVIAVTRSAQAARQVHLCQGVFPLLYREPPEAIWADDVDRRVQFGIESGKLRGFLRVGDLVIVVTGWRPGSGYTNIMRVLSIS
Protocol: (§1) PKR Activating Compounds can be identified with the biochemical Luminescence Assay of Example 2. The PKR activating activity of a series of chemical compounds was evaluated using the Luminescence Assay below, including compounds designated Compound 1, and Compound 2, or mixtures thereof.
(§2) For each tested compound, the ability to activate PKR was determined using the following Luminescence Assay. The effect of phosphorylation of adenosine-5′-diphosphate (ADP) by PKR is determined by the Kinase Glo Plus Assay (Promega) in the presence or absence of FBP (D-fructose-1,6-diphosphate; BOC Sciences, CAS: 81028-91-3) as follows. Unless otherwise indicated, all reagents are purchased from Sigma-Aldrich. All reagents are prepared in buffer containing 50 mM Tris-HCl, 100 mM KCl, 5 mM MgCl2, and 0.01% Triton X100, 0.03% BSA, and 1 mM DTT. Enzyme and PEP (phosphoenolpyruvate) are added at 2× to all wells of an assay-ready plate containing serial dilutions of test compounds or DMSO vehicle. Final enzyme concentrations for PKR (wt), PKR(R510Q), and PKR (G332S) are 0.8 nM, 0.8 nM, and 10 nM respectively. Final PEP concentration is 100 μM. The Enzyme/PEP mixture is incubated with compounds for 30 minutes at RT before the assay is initiated with the addition of 2×ADP and KinaseGloPlus. Final concentration of ADP is 100 μM. […] For assays containing FBP, that reagent is added at 30 μM upon reaction initiation. Reactions are allowed to progress for 45 minutes at RT until luminescence is recorded by the BMG PHERAstar FS Multilabel Reader. The compound is tested in triplicate at concentrations ranging from 42.5 μM to 2.2 nM in 0.83% DMSO. AC50 measurements were obtained by the standard four parameter fit algorithm of ActivityBase XE Runner (max, min, slope and AC50). The AC50 value for a compound is the concentration (μM) at which the activity along the four parameter logistic curve fit is halfway between minimum and maximum activity.
(§3) As set forth in Table 2 below, AC50 values are defined as follows: ≤0.1 μM (+++); >0.1 μM and ≤1.0 μM (++); >1.0 μM and ≤40 μM (+); >40 μM (0).

[2] = target: PKR (G332S) (Homo sapiens, UniProt P30613, G332S); experiment: as above; format: biochemical; conditions: read-out: AC50 (PKRG332S)
Chain of PKR (G332S) (P30613 whole entry G332S): as the sequence (P30613 whole entry R510Q) above, with G332S, Q510R counted along it
Protocol: as §1, §2, §3

[3] = target: PKR (wt) (Homo sapiens, UniProt P30613); experiment: as above; format: biochemical
Chain of PKR (wt) (P30613 whole entry): as the sequence (P30613 whole entry R510Q) above, with Q510R counted along it
Protocol: as §1, §2, §3

[4] = target: T1, aromatase (Homo sapiens, UniProt P11511); conditions: Yang et al. 2018; Grace et al. 2019; cited from earlier work
T1 construct: endogenous in cells; host or cells: H295R adreno-cortical carcinoma cells; healthy human subjects in vivo
T1 sequence (P11511 1-503): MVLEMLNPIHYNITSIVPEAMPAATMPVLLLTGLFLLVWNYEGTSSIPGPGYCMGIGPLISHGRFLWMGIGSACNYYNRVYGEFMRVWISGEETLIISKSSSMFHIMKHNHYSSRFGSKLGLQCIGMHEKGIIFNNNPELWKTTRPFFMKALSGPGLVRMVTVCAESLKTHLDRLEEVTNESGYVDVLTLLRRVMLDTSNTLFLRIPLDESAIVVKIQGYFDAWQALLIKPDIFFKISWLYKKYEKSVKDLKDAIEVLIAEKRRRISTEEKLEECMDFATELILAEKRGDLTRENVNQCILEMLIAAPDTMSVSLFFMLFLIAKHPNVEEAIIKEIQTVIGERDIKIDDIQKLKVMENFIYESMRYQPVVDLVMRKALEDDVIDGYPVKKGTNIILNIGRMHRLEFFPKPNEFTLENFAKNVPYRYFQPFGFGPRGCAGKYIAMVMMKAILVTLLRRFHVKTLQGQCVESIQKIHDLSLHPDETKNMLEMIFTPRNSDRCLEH

[5] = Phase 1: hematologic and hemolytic laboratory parameters in SCD patients; format: in vivo, human; conditions: for Hemoglobin / Indirect Bilirubin / Lactate Dehydrogenase, U/L / Reticulocytes, %: SCD 300 mg Compound 1/Placebo (blinded) once daily, individual Pt 1-3
Source text: Laboratory changes relative to pretreatment for each pt in the MD cohort as of Jul. In 2 of 3 SCD MD-1 pts treated with Compound 1/placebo (currently blinded), Hb increased by >1 g/dL, % reticulocytes decreased, and markers of hemolysis were improved after 14 days of treatment (compared to pre-treatment levels). Hematologic parameters returned to pre-treatment levels 4 to 7 days post-treatment (data not shown) without clinical AEs.
A median 1.2 g/dL Hb increase (range 0, 2.3) and a median 60% reticulocyte decrease (range −39%, −81%) over baseline were observed. The onset of the increase in Hb was rapid and continued to increase in most patients through the end of treatment, indicating the potential for additional improvement with extended dosing. […] A median 36% LDH decrease (range +18%, −57%) and a median 35% bilirubin decrease (range −7%, −63%) over baseline were observed, which is consistent with the hypothesis that Compound 1 improves RBC survival and reduces RBC turnover.

[6] = intravenous (IV) bolus dose; cited from earlier work
[7] = cited from earlier work
[8] = whole blood, relative to fasted state

- AC50 [1]: 1 to 40 µM
- AC50 [2]: 1 to 40 µM
- AC50 [3]: 1 to 40 µM
Compound: O=C([C@@H](CO)c1ccccc1)N1CC2=C(C1)CN(S(=O)(=O)c1cnc3c(c1)OCCO3)C2 (single isomer, unassigned) [Compound 2]

Compound: O=C(c1ccc(NS(=O)(=O)c2cccc3cccnc23)cc1)N1CCN(CC2CC2)CC1 [AG-348]
- aromatase inhibition [4]: Aromatase inhibition has been observed

Compound: O=C([C@H](CO)c1ccccc1)N1CC2=C(C1)CN(S(=O)(=O)c1cnc3c(c1)OCCO3)C2 [Compound 1/Placebo]
- Hemoglobin ([5]; Day 7 (on Tx)): 7.9 g/dL and 10.4 g/dL and 8.8 g/dL
- Indirect Bilirubin ([5]; Day 7 (on Tx)): 2.5 mg/dL and 0.9 mg/dL and 0.8 mg/dL
- Lactate Dehydrogenase, U/L ([5]; Day 7 (on Tx)): 148 U/L and 257 U/L and 371 U/L
- Reticulocytes, % ([5]; Day 7 (on Tx)): 12.8% and 6.8% and 5.8%
- Hemoglobin ([5]; Day 14/15 (EOT)): 7.5 g/dL and 11.1 g/dL and 9.2 g/dL
- Indirect Bilirubin ([5]; Day 14/15 (EOT)): 3.0 mg/dL and 0.8 mg/dL and 1.0 mg/dL
- Lactate Dehydrogenase, U/L ([5]; Day 14/15 (EOT)): 192 U/L and 226 U/L and 279 U/L
- Reticulocytes, % ([5]; Day 14/15 (EOT)): 11.4% and 0.8% and 4.2%
- patients with Hb increased by >1 g/dL ([5]; SCD MD-1, Compound 1/placebo (currently blinded), 14 days): 2 of 3

Compound: NC(=O)CC[C@H](N)C(=O)O [L-glutamine, (S)-2-aminoglutaramic acid]
- volume of distribution [6]: approximately 200 mL/kg

Compound: CC(C)n1nccc1-c1ncccc1COc1cccc(O)c1C=O [voxelotor, 2-hydroxy-6-((2-(1-isopropyl-1H-pyrazol-5-yl)pyridin-3-yl)methoxy)benzaldehyde]
- increase in AUC with high-fat, high-calorie meal ([7]; plasma): 42%
- increase in Cmax with high-fat, high-calorie meal ([7]; plasma): 95%
- steady state AUC higher in HbSC vs HbSS genotype patients ([7]; plasma): 23%
- steady state Cmax higher in HbSC vs HbSS genotype patients ([7]; plasma): 15%
- increase in AUC with high-fat, high-calorie meal [7, 8]: 42%
- increase in Cmax with high-fat, high-calorie meal [7, 8]: 45%
- steady state AUC higher in HbSC vs HbSS genotype patients ([7]; whole blood): 50%
- steady state Cmax higher in HbSC vs HbSS genotype patients ([7]; whole blood): 45%
